From US12723029B2, “Mitochondrial ATP inhibitors targeting the gamma subunit prevent metastasis” (LUNELLA BIOTECH, INC., priority 2020, dated 2026)

Legend:
MDA-MB-231 cells [1] = test: 2D monolayer growth, MDA-MB-231; type: cell-based, human; conditions: 10 μM, time-dependent
p21 = test: Western blot of p21 protein expression; type: cell-based, human; conditions: MDA-MB; 0.1, 1 and 10 μM; 120 hours
Experimental: (§1) Beta-actin was used as a control for equal loading.
(§2) Western Blotting: Cells were lysed in RIPA buffer (Sigma Aldrich, Inc.) containing one tablet of Complete TM inhibitor mix (Roche Applied Science, Indianapolis) and one tablet of PhosSTOP™ […] per 10 mL of buffer and loaded onto SDS-polyacrylamide gels. The gels were transferred to 0.2 μm nitrocellulose membranes, using the Trans-Blot Turbo Transfer System (Bio-Rad, Inc.) Membranes were incubated with the respective primary antibodies diluted in Tris-buffered saline, 0.1% Tween 20 (Sigma Aldrich, Inc.) and 5% Bovine Serum Albumin (BSA; Sigma Aldrich Inc.) (TBST), and incubated overnight at 4° C. Then, the blots were washed and incubated with appropriate secondary antibodies and detected using Super Signal West Pico Chemiluminescent Substrate (Thermo Scientific, Inc.), using the G-Box (Syngene, Inc). Antibodies and their dilutions used for Western blot analysis were as follows: mouse anti-ATP5F1C 1:500, mouse anti-β-actin 1:10,000, rabbit anti-PARP 1:1,000, rabbit anti-p21 1:1,000. The resulting immune-blot images were acquired using GeneSys Software (Syngene, Inc.).

MDA-MB-231 cells [2] = test: Cell migration assay (Transwells); type: cell-based, human; conditions: 10 μM, 32 hours then 16 hours in Transwells
Experimental: MDA-MB-231 cells were cultured in presence of Bedaquiline (10 μM) for 32 hours and moved to the Transwells for 16 hours in presence of Bedaquiline (10 μM). Unpaired t-test, **p<0.005.
Cell Migration Assays: Briefly, 3.5×10^4 cells in 0.5 ml of serum-free DMEM with 0.1% BSA were added to the wells of 8-μm pore, non-coated membrane modified Boyden chambers (Transwells). The lower chambers contained 10% fetal bovine serum in DMEM to serve as a chemo-attractant. Cells were incubated at 37° C. and allowed to migrate throughout the course of 16 hours. Noninvasive cells were removed from the upper surface of the membrane by scrubbing with cotton swabs. Chambers were stained in 0.5% crystal violet diluted in 100% methanol for 30-60 min, rinsed in water and examined under a bright-field microscope. Values for invasion and migration were obtained by counting five fields per membrane (20× objective) and represent the average of three independent experiments.

[3] = system: mitochondrial ATP production in MDA-MB-231 cells; test: ATP assay using BioTracker ATP-Red 1 (flow cytometry); type: cell-based, human
Experimental: FIG. 7 compares the fold-change of BioTracker ATP-Red (signal mean) between the control and MDA-MB-231 cells treated with Bedaquiline. […] The data in FIG. 7 based on two-way ANOVA, Sidak's multiple comparisons test, *p<0.05, ** p<0.005, ***p<0.0005, ****p<0.0001.
ATP assay using BioTracker ATP-Red 1: Cells were stained with BioTracker ATP-Red 1 after various treatments. After 30 minutes of incubation, the cells were washed twice with DPBS, collected and dissociated into a single-cell suspension with a 40 μm cell strainer. The cells were analyzed using the Attune N×T Flow Cytometer. Means of the signal (at 570 nm) were compared.

MDA-MB-231 cells [4] = test: 3D anchorage independent growth (mammosphere formation) assay; type: cell-based, human
Experimental: 3D Anchorage Independent Growth Assay: This assay is also referred to as the mammosphere formation assay. A single-cell suspension was prepared using enzymatic, and manual disaggregation (25-g needle). Then, cells were plated at a density of 500 cells/cm^2 in mammosphere medium (DMEM-F12+1X B-27 Plus Supplement+20 ng/ml EGF+Pen/Strep) under non-adherent conditions, in culture dishes pre-coated with (2-hydroxyethylmethacrylate) (poly-HEMA, Sigma Aldrich Inc.), called “mammosphere plates.” Cells were grown for 5 days and maintained in a humidified incubator at 37° C. After 5 days of culture, 3D-mammospheres >50 μm were counted using an eye piece (“graticule”), and the percentage of cells plated which formed spheres was calculated and is referred to as percent mammosphere formation, and was normalized to one (1=100% MFE). 3D mammosphere formation efficiency (MFE) was analyzed in both the ATP-low and ATP-high sub-populations of cells. All 3D mammosphere experiments were performed in triplicate, at least 3 times independently.

MDA-MB-231 cells [5] = test: CAM assay: tumor growth and spontaneous metastasis of MDA-MB-231 xenografts; type: in vivo, chicken embryo (White Leghorn eggs)
ATP5F1C = target: T1, ATP5F1C (Homo sapiens, UniProt P05496+P36542); test: Western blot of ATP5F1C protein expression in MDA-MB-231 2D monolayers; type: cell-based; conditions: 0.1, 1 and 10 μM, especially 10 μM, 24-120 hours, relative to DMSO
T1 construct: Western blot analysis of MDA-MB-231 2D cell monolayers treated with Bedaquiline; endogenous in cells; host or cells: MDA-MB-231 (ATCC)
Experimental: The binding of Bedaquiline to ATP5F1C in situ induces degradation of the protein. […] The effect was both time- and concentration-dependent.
as §2

MCF10A cells = test: 2D monolayer growth, MCF10A; conditions: MCF10A normal control mammary epithelial cells; 10 μM
PARP = test: Western blot of PARP protein expression; type: cell-based, human; conditions: MDA-MB; 0.1, 1 and 10 μM; 120 hours
Experimental: as §1, §2

MDA-MB-231 cells [6] = test: Cell cycle analysis by FACS; type: cell-based, human
Experimental: FIGS. 10A-10C show cell cycle populations for MDA-MB-231 cells treated with Bedaquiline (1 and 10 μM) or vehicle alone, after 48, 72 and 120 hours, respectively. Cell cycle analysis was performed using FACS. […] However, at 72 and 120 hours, a decrease in the S-phase population and a concomitant increase in the sub-G0-G1 population can be seen in FIGS. 10B and 10C. Two-way ANOVA, Sidak's multiple comparisons test, ns=not significant, *p<0.01, **p<0.001, ***p<0.0005.
Cell Cycle Analysis by FACS: Cell-cycle analysis was performed on the ATP-high and ATP-low cell sub-populations, by FACS analysis using the Attune N×T Flow Cytometer. Briefly, after trypsinization, the re-suspended cells were incubated with propidium iodide, as per the manufacturer's recommendations (Merck Millipore, Inc.). At least 25,000 events were analyzed per condition. Gated cells were categorized into cell-cycle stages.

MDA-MB-231 cells [7] = test: Live cell/dead cell analysis by FACS; type: cell-based, human; conditions: 1 and 10 μM
Experimental: FIGS. 10D-10F show the results of live cell/dead cell analysis. MDA-MB-231 cells were treated with Bedaquiline (1 and 10 μM) or vehicle alone, for 48, 72 and 120 hours, and then subjected to live/dead analysis by FACS. […] However, at 72 and 120 hours (FIGS. 10E and 10F), a decrease in the live cell population and an increase in the dead cell population can be seen. […] Two-way ANOVA, Sidak's multiple comparisons test, ns=not significant, *p<0.01, **p<0.001, ***p<0.0005.

chick embryos = test: CAM assay: embryo toxicity; set-up: species or system chicken (White Leghorn); conditions: all concentrations tested in vivo; daily for 8 days
Experimental: Next, to test in vivo activity, the well-established CAM assay was used with MDA-MB-231 cells, to measure the effect of Bedaquiline effects on tumor growth, spontaneous metastasis and embryo toxicity. FIG. 11A illustrates the timeline for the CAM assay. An inoculum of 1×10^6 MDA-MB-231 cells was added onto the CAM of each egg (day E9) and then eggs were randomized into groups. On day E10, tumors were detectable and they were then treated daily for 8 days with vehicle alone (1% DMSO in PBS) or Bedaquiline. After 8 days of drug administration, on day E18, all tumors were weighed, and the lower CAM was collected to evaluate the number of metastatic cells, as analyzed by qPCR with specific primers for Human Alu sequences. Before each drug administration, treatment tolerability was evaluated by scoring the number of live and dead chicken embryos.
Tumor Growth, Metastasis and Embryo Toxicity Assays: Xenograft assays were carried out by INOVOTION (Société: 811310127), La Tronche-France. […] For tumor growth assays, at least 14 tumor samples were collected and analysed per group (N≥14). […] Genomic DNA was extracted from the CAM (commercial kit) and analyzed by qPCR with specific primers for Human Alu sequences. […] Before each administration, the treatment tolerability was evaluated by scoring the number of live and dead embryos.

## COc1nc2ccc(Br)cc2cc1[C@@H](c1ccccc1)[C@@](O)(CCN(C)C)c1cccc2ccccc12 [Bedaquiline, (1R,2S)-1-(6-bromo-2-methoxyquinolin-3-yl)-4-(dimethylamino)-2-naphthalen-1-yl-1-phenylbutan-2-ol]
MDA-MB-231 cells [1]
  2D monolayer growth: effectively inhibits 2D growth
p21
  p21 protein expression: decreased in a concentration-dependent manner
MDA-MB-231 cells [2]
  block of cell migration: ~ 50%
[3]; Homo sapiens, MDA-MB-231, 10 μM, 120 hours of treatment, read-out: maximal inhibition of mitochondrial ATP production
  inhibition at 10 µM: 75%
MDA-MB-231 cells [4]; MDA-MB-231, 10 μM
  block of 3D mammosphere formation: ~ 65%
MDA-MB-231 cells [5]; CAM, 120 μM treatment, daily for 8 days, qPCR Human Alu, vs control
  inhibition of spontaneous metastasis: 84%
MDA-MB-231 cells [5]; CAM, treated daily for 8 days, day E18
  tumor growth (average tumor weight): no statistically significant effect
ATP5F1C
  levels of ATP5F1C protein expression: reduced in a sustained way
MCF10A cells
  2D monolayer growth: No effect
PARP
  PARP protein expression: decreased in a concentration-dependent manner
MDA-MB-231 cells [6]; 1 and 10 μM, 72 and 120 hours
  S-phase population: decrease
  sub-G0-G1 population: increase
MDA-MB-231 cells [6]; 1 and 10 μM, 48 hours
  cell cycle populations: No effects were detectable
MDA-MB-231 cells [6]; after 120 hours of treatment
  increase in the sub-G0-G1 population: 2 fold
  reduction of cells in S-phase: 2 fold
MDA-MB-231 cells [7]; 72 and 120 hours
  apoptotic cell population (early or late): no increase
  dead cell population: increase
  live cell population: decrease
MDA-MB-231 cells [7]; 48 hours
  live/dead cell populations: No effects were detectable
Chick embryos
  toxicity for chick embryos (egg survival): not toxic

## CCCCCCCCCCCCCC(=O)OCCCCc1ccc2nc(OC)c([C@@H](c3ccccc3)[C@@](O)(CCN(C)C)c3cccc4ccccc34)cc2c1 [structure [4B]]
[3]; initial/early assessment
  potency relative to unconjugated Bedaquiline, inducing ATP-depletion: 2-5 fold
MDA-MB-231 cells [4]; initial/early assessment
  potency relative to unconjugated Bedaquiline, inhibiting mammosphere formation: 2-5 fold
MDA-MB-231 cells [5]; initial/early assessment, CAM assay
  potency relative to unconjugated Bedaquiline, inhibiting spontaneous metastasis: 2-5 fold
